Laboratory results published in patent US20260183303A1, “PDK1 REGULATORY COMPOUND AND COMPOSITION CONTAINING THE SAME” (PROVIBIO CO., LTD., priority 2024, published 2026).

Legend:
[1] = tested on: MRL/lpr mice with hair loss symptoms in the facial region; test: Hair loss treatment and hair follicle Ki-67 IHC in MRL/lpr mice; assay type: in vivo; settings: 41-week-old female MRL/lpr mice; GO15F (30 mg/kg), G048 (1 mg/kg), G088 (0.5 mg/kg) intraperitoneally once daily
Method: Additionally, in 41-week-old female MRL/lpr mice, the compounds GO15F (30 mg/kg), G048 (1 mg/kg), and G088 (0.5 mg/kg) were administered intraperitoneally once daily.
To confirm the proliferative activity of hair follicle cells in the skin tissue of these mice, the mice were sacrificed 14 days after administration of the compounds of the present invention, and Ki-67 immunohistochemistry […] was performed.
For this purpose, the excised skin tissue was fixed in formalin, embedded in paraffin blocks, and stained with a Ki-67-specific antibody on tissue sections prepared as slides.

[2] = molecular target: T1, PDK1 (phosphoinositide-dependent kinase 1) phosphorylation (Homo sapiens, UniProt O15530); test: PDK1 phosphorylation (pPDK1-PE) by flow cytometry in SU-DHL-8 cells; assay type: cell-based; settings: 24 hours, compared to the control group
T1 construct: endogenous in cells; host or cells: SU-DHL-8 (ATCC CRL-2961)
T1 sequence (O15530 1-556): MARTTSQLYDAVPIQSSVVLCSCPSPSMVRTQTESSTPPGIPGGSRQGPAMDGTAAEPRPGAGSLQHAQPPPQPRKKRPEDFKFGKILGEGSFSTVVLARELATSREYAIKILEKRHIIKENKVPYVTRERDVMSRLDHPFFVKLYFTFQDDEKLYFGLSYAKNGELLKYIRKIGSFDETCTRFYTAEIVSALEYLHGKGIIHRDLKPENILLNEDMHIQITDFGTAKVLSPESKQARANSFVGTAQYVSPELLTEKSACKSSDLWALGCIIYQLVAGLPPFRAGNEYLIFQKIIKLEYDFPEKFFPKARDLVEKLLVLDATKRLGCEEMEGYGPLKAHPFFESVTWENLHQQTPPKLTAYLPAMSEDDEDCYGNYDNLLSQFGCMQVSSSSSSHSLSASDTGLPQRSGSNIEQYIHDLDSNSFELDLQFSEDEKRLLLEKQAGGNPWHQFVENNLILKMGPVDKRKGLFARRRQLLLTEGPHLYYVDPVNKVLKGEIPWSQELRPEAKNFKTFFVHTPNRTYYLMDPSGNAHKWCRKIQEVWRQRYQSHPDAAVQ
Method: After stabilizing the cells, the compound of the present invention was added, and the cells were cultured for 24 hours.
After drug treatment, the cells were harvested, and the Fc receptor blocking process was performed. The cells were then fixed and permeabilized using the Intracellular Staining Kit (Cat. No. BD554715) from BD Biosciences. Subsequently, the intracellular pPDK1 was stained using the pPDK1-PE fluorescently labeled antibody (BD Biosciences).
Referring to the figure, the vertical axis represents the phosphorylation level of PDK1 (phospho-PDK1 expression level), and the horizontal axis denotes the concentration-dependent treatment conditions of each compound.

[3] = tested on: MRL/MpJ-Faslpr/J (MRL/lpr) lupus animal model; test: Systemic lupus erythematosus model, MRL/lpr mice; assay type: in vivo
Description: The MRL/MpJ-Faslpr/J (hereinafter referred to as “MRL/lpr”) used in this experiment is one of the representative animal models for systemic lupus erythematosus (SLE), known to produce various autoantibodies, including antinuclear antibodies, due to the lpr (lymphoproliferation) gene.
Generally, female MRL/lpr develop systemic lupus erythematosus around 12 weeks of age, and approximately 50% of the animals die by 30 weeks of age.
In this invention, the period up to 9 weeks of age was considered the pre-disease stage, and the period after 23 weeks of age was considered the post-disease stage, and efficacy verification experiments using this model were conducted.
To obtain experimental animals, female MRL/lpr mice aged 6 weeks were imported from The Jackson Laboratory, and MRL/lpr mice were imported from The Jackson Laboratory and acclimatized for one week in an SPF (Specific Pathogen Free) facility maintained at a temperature of 21-24° C., humidity of 40-60%, and a 12-hour light-dark cycle (lights on at 7:00 AM, lights off at 7:00 PM).
Subsequently, female and male MRL/lpr mice were mated at a ratio of 2:1 in the same facility, and the female offspring were administered the compound G015F of the present invention or vehicle at a dose of 30 mg/kg once daily via intraperitoneal injection or oral administration from the age of 10 weeks until 23 weeks of age.
Urine samples were collected once a week from each individual and used for analytical experiments.
At 23 weeks of age, necropsy was performed on each MRL/lpr mouse, and serum, kidneys, and spleens were isolated and used for analytical experiments.
The protein concentration in urine collected weekly from the control group or experimental group was analyzed using ‘Quick Start™ Bradford 1× Dye Reagent (Bio-Rad, Cat. #5000205).’
In each well of a 96-well plate, 5 μl of urine sample diluted with triple-distilled water and 250 μl of 1× dye reagent were added, reacted, and the absorbance was measured at 595 nm.
The concentration of anti-nuclear antibodies (Anti-dsDNA Ab) was measured using the ‘Mouse Anti-dsDNA IgG ELISA Kit (Alpha Diagnostic International, Cat. #5120)’ on serum isolated at the time of necropsy in the lupus animal model.
Each mouse serum was diluted to a final concentration of 1/5000 with Working Sample Diluent (WSD) and Low NSB Sample Diluent (LNSD), followed by adding 100 μl of the diluted serum to wells coated with anti-dsDNA and incubating at room temperature for 60 minutes.
The wells were then washed four times with 200 μl of washing buffer, followed by the addition of 100 μl of Anti-Mouse IgG-HRP antibody, and the mixture was incubated at room temperature for 30 minutes.
Each well was washed four times with 200 μl of washing buffer, and 100 μl of 3,3′,5,5′-Tetramethylbenzidine (TMB) substrate solution was added to each well.
The degree of color change to blue in the wells containing the standard solution was checked, and after 15 minutes, 100 μl of stop solution was added to terminate the reaction.
After the reaction was complete, the optical density (OD) was measured at 450 nm. […]
After that, each well was washed twice with 400 μl of washing solution, and 100 μl of TMB substrate solution was added to each well.
The degree of color change to blue in the wells containing the standard solution was checked, and after 15 minutes, 100 μl of stop solution was added to stop the reaction.
To investigate the effect of G015F administration on changes in the ratio of immune cells in the spleen of a lupus animal model, the spleens of mice administered each compound were excised, cells were extracted, and the cells were suspended in MACS buffer (autoMACS Washing Solution, Miltenyi Biotec., Cat. #130-092-987).
For flow cytometry analysis, FACS tubes (5 mL round tubes, Falcon, Cat. #352052)were used. […]

[4] = tested on: bleomycin-induced pulmonary fibrosis mice; test: Pulmonary fibrosis model induced by bleomycin intratracheal administration; assay type: in vivo, Balb/c mice; settings: BLM mice, vs BLM-treated group
Description: To evaluate the therapeutic efficacy of the compound according to the present invention against pulmonary fibrosis, an animal model of pulmonary fibrosis induced by bleomycin intratracheal administration was established.
For this purpose, 8-week-old male Balb/c mice were subjected to general anesthesia using an inhalation anesthetic (2-3% isoflurane in oxygen), followed by disinfection of the neck region, skin incision, and exposure of the trachea.
Bleomycin (Sigma-Aldrich, USA)was directly administered into the trachea at a concentration of 5 mg/kg in a solution of […].
Two days prior to Bleomycin administration, the compound of the present invention or the comparative drug was administered intraperitoneally at the specified concentration and dose, and the administration was continued once daily for a total of 14 days.
The experimental groups included Normal, Bleomycin alone (BLM), and BLM plus the compound of the present invention (BLM+G088, 0.2 mg/kg).
Ten days later, the mice were euthanized humanely using carbon dioxide gas, the trachea was incised, and PBS was injected into the trachea to remove blood from the lungs.
The lung tissue washed with PBS was excised, fixed in 4% paraformaldehyde solution for 24 hours, and then paraffin blocks and tissue sections were prepared. The prepared sections were subjected to pathological analysis using H&E, Masson's trichrome, and Sirius red staining.
Additionally, immunohistochemical (IHC) staining was performed for α-SMA (α-smooth muscle actin), an indicator of lung fibroblast activation.

[5] = tested on: human lung fibroblasts MRC-5 cell lines; test: Collagen I Western blot in TGF-β treated MRC-5 cells; assay type: cell-based; settings: MRC-5, TGF-β (5 ng/ml), G088 0.5 μM and 1 M (so in the source), 24 hours
Method: To confirm that the compound of the present invention directly acts on fibrosis-related mechanisms, in vitro experiments were performed using human lung fibroblasts MRC-5 cell lines (Korea Cell Bank).
First, MRC-5 cells were seeded at 5×10^3 cells per well in a 6-well plate and stabilized for 24 hours.
Subsequently, experimental groups were established, including a control group, a group treated with TGF-β (5 ng/ml) alone, and groups treated with TGF-β and the compound G088 from the present invention at concentrations of 0.5 μM and […], respectively.
After treating each group with the drugs for 24 hours, the cell medium was removed, and the cells were washed twice with cold PBS. Then, RIPA lysis buffer containing phosphatase inhibitor and protease inhibitor was added to each group to extract proteins.
The extracted proteins were incubated at 4° C. for 30 minutes, then centrifuged at 13,000 rpm for 15 minutes, and the supernatant was collected. The total protein concentration was measured using the BCA protein quantification method.
Subsequently, the proteins were separated by SDS-PAGE, transferred to a PVDF membrane, and Western blot analysis was performed.
The expression levels of Collagen I, a marker related to pulmonary fibrosis, were confirmed, with GAPDH used as an internal control.

[6] = molecular target: T2, full-length PDK1 (PDK1-FL) (Homo sapiens, UniProt O15530); test: Binding affinity by Microscale Thermophoresis (MST), full-length PDK1; settings: ratio of Kd values
T2 construct: full-length (PDK1-FL) protein of human-derived PDK1; made in house; host or cells: Sf9 insect cells, baculovirus
T2 sequence (O15530 1-556): T1 sequence (O15530 1-556)
Method: Experimental Example 16: Binding affinity experiment with PDK1 using MST Microscale Thermophoresis (MST) analysis was performed to quantitatively measure the binding affinity between PDK1 protein and substrate peptides (PDKTide) or the company-developed low-molecular-weight compound (GO88).
The target proteins were the full-length (PDK1-FL) protein of human-derived PDK1 and the Protein Kinase Domain (PKD) fragment, which were expressed using a baculovirus expression system in insect cell lines (Sf9).
The purity of the purified proteins was confirmed by SDS-PAGE and Coomassie Brilliant Blue staining.
The purified protein was labeled with a fluorescent label using the Monolith NT™ RED-NHS Protein Fluorescent Labeling Kit (NanoTemper).
Specifically, 20 μM of the protein was dissolved in PBS (pH 7.4) buffer, mixed with the fluorescent reagent, and reacted at room temperature under dark conditions for 30 minutes. The mixture was then buffered with MST analysis buffer (50 mM HEPES, 150 mM NaCl, 1 mM DTT, 0.05% Tween-20, pH 7.5). […]
The reaction samples were injected into an MST-specific capillary (NanoTemper) and analyzed using a Monolith NT.115 device (NanoTemper) under laser intensity conditions. […]
The measured data were analyzed using MO.Affinity Analysis software (NanoTemper), and the dissociation constant (Kd) was calculated from the binding curve.

[7] = serum at necropsy (23 weeks), ELISA

Row | phospho-PDK1 expression level (inhibition of PDK1 phosphorylation) [2] | binding affinity of full-length PDK1 compared to the PDK fragment [6] | Compound | hair growth on the facial region [1] | protein concentration in urine ([3]; 30 mg/kg once daily, weekly urine, Bradford) | renal pathological tissue staining (glomeruli) ([3]; H&E, PAS, Masson trichrome) | B cells, T cells and macrophages in the spleen ([3]; flow cytometry (B220, CD3, CD11b/F4/80)) | IgG deposition in kidney tissue ([3]; immunofluorescence staining) | concentration of anti-dsDNA IgG in the blood [3, 7] | total IgG concentration in the blood [3, 7] | collagen deposition (Masson's trichrome, Sirius red) [4] | expression of α-SMA in lung tissue (IHC) [4] | protein expression of Collagen I [5]
1 | stronger PDK1 inhibition |  | Nc1ncccc1C(=O)NCCCCCCCCCCCCN1CCOCC1 [Compound 2, 2-Amino-N-(12-morpholin-4-yl-dodecyl)-nicotinamide] | hair growth was confirmed |  |  |  |  |  |  |  |  | 
2 | stronger PDK1 inhibition | six times stronger | Nc1ncccc1C(=O)NCCCCCCCCCCCCN1CCNCC1 [Compound G088] | hair growth was confirmed |  |  |  |  |  |  | significantly reduced | significantly suppressed | inhibited in a concentration-dependent manner

Row | Compound | phospho-PDK1 expression level (inhibition of PDK1 phosphorylation) [2] | binding affinity of full-length PDK1 compared to the PDK fragment [6] | hair growth on the facial region [1] | protein concentration in urine ([3]; 30 mg/kg once daily, weekly urine, Bradford) | renal pathological tissue staining (glomeruli) ([3]; H&E, PAS, Masson trichrome) | B cells, T cells and macrophages in the spleen ([3]; flow cytometry (B220, CD3, CD11b/F4/80)) | IgG deposition in kidney tissue ([3]; immunofluorescence staining) | concentration of anti-dsDNA IgG in the blood [3, 7] | total IgG concentration in the blood [3, 7] | collagen deposition (Masson's trichrome, Sirius red) [4] | expression of α-SMA in lung tissue (IHC) [4] | protein expression of Collagen I [5]
3 | Nc1ncccc1C(=O)NCCCCCCCCCCCCF [Compound G015F] | inhibitory effect on PDK1 phosphorylation |  |  | significantly lower | glomerular capillary loops were well maintained | reduced the increased B cells, T cells, and macrophages | significantly lower | significantly lower | significantly lower | significantly reduced | significantly suppressed | 
